Relative viability data for three cell lines are collected here from the supplement of paper PMC10307832.

Common to all, as to assay: relative viability (nuclei count vs DMSO), 5 days (fraction); higher = more cells survive
Compound in the assay “AGI-6780 + Vorinostat”: O=C(Nc1cccc(C(F)(F)F)c1)Nc1cc(S(=O)(=O)NC2CC2)ccc1-c1ccsc1 [AGI-6780] + O=C(CCCCCCC(=O)Nc1ccccc1)NO [Vorinostat] (partner 1 µM)
The gist of the method:
(§1)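 Dosing by pin tool came one day after lung cancer cell lines were seeded in 1536-well plates, using either one drug or a fixed anchor-drug dose plus five library-drug doses (not always all listed) in √10 steps. After 5 days, nuclei were counted on 4× images. Relative viability is treated-well nuclei count divided by vehicle-well nuclei count, and values are medians of duplicate plates.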

Compound in the assay “AGI-6780 + Crizotinib”: O=C(Nc1cccc(C(F)(F)F)c1)Nc1cc(S(=O)(=O)NC2CC2)ccc1-c1ccsc1 [AGI-6780] + C[C@@H](Oc1cc(-c2cnn(C3CCNCC3)c2)cnc1N)c1c(Cl)ccc(F)c1Cl [Crizotinib] (partner 1 µM)
The gist of the method:
as §1

Compound in the assay “AGI-6780 + AZD7762”: O=C(Nc1cccc(C(F)(F)F)c1)Nc1cc(S(=O)(=O)NC2CC2)ccc1-c1ccsc1 [AGI-6780] + NC(=O)Nc1cc(-c2cccc(F)c2)sc1C(=O)N[C@H]1CCCNC1 [AZD7762] (partner 0.2 µM)
The gist of the method:
as §1

Compound in the assay “AGI-6780 + Palbociclib”: O=C(Nc1cccc(C(F)(F)F)c1)Nc1cc(S(=O)(=O)NC2CC2)ccc1-c1ccsc1 [AGI-6780] + CC(=O)c1c(C)c2cnc(Nc3ccc(N4CCNCC4)cn3)nc2n(C2CCCC2)c1=O [Palbociclib] (partner 0.5 µM)
The procedure, abridged: as §1

With PC-3 [JPC-3], the relative viability amounted to 0.866 with AGI-6780 + Vorinostat (first compound 0.253 µM); 1.08 with AGI-6780 + Vorinostat (first compound 0.8 µM); 0.967 with AGI-6780 + Vorinostat (first compound 2.53 µM); 0.731 with AGI-6780 + Vorinostat (first compound 8 µM); 1.01 in the assay with AGI-6780 + Crizotinib (first compound 0.08 µM); 0.928 with AGI-6780 + Crizotinib (first compound 0.253 µM). The relative viability worked out at 0.971 with AGI-6780 + Crizotinib (first compound 0.8 µM); 0.994 with AGI-6780 + Crizotinib (first compound 2.53 µM); 0.977 in the assay with AGI-6780 + Crizotinib (first compound 8 µM); 0.758 in the assay with AGI-6780 + AZD7762 (first compound 0.253 µM); 0.984 in the assay with AGI-6780 + AZD7762 (first compound 0.8 µM); 0.877 with AGI-6780 + AZD7762 (first compound 2.53 µM). Also, the relative viability with AGI-6780 + AZD7762 (first compound 8 µM) is 0.729; with AGI-6780 + Palbociclib (first compound 0.253 µM), 0.574; with AGI-6780 + Palbociclib (first compound 0.8 µM), 0.563; with AGI-6780 + Palbociclib (first compound 2.53 µM), 0.566; with AGI-6780 + Palbociclib (first compound 8 µM), 0.571.

With PC-14, the relative viability with AGI-6780 + Vorinostat (first compound 0.08 µM) is 0.919; in the assay with AGI-6780 + Vorinostat (first compound 0.253 µM), 0.708; with AGI-6780 + Vorinostat (first compound 0.8 µM), 0.845; with AGI-6780 + Vorinostat (first compound 2.53 µM) it was 0.779; with AGI-6780 + Vorinostat (first compound 8 µM), 0.799; in the assay with AGI-6780 + Crizotinib (first compound 0.08 µM), 0.902. For the same cell line, the relative viability in the assay with AGI-6780 + Crizotinib (first compound 0.253 µM) was found to be 0.867; with AGI-6780 + Crizotinib (first compound 0.8 µM), 0.971; in the assay with AGI-6780 + Crizotinib (first compound 2.53 µM), 0.851; in the assay with AGI-6780 + Crizotinib (first compound 8 µM), 0.928; with AGI-6780 + AZD7762 (first compound 0.08 µM), 0.355; with AGI-6780 + AZD7762 (first compound 0.253 µM), 0.33. The relative viability with AGI-6780 + AZD7762 (first compound 0.8 µM) was 0.453; with AGI-6780 + AZD7762 (first compound 2.53 µM), 0.455; with AGI-6780 + AZD7762 (first compound 8 µM), 0.397; with AGI-6780 + Palbociclib (first compound 0.08 µM), 0.533; with AGI-6780 + Palbociclib (first compound 0.253 µM), 0.538; in the assay with AGI-6780 + Palbociclib (first compound 0.8 µM), 0.568. In addition, the relative viability stood at 0.553 with AGI-6780 + Palbociclib (first compound 2.53 µM) and 0.546 in the assay with AGI-6780 + Palbociclib (first compound 8 µM).

Turning to RERF-LC-KJ, the relative viability worked out at 0.784 in the assay with AGI-6780 + Vorinostat (first compound 0.08 µM); 0.724 in the assay with AGI-6780 + Vorinostat (first compound 0.253 µM); 0.795 with AGI-6780 + Vorinostat (first compound 0.8 µM); 0.596 with AGI-6780 + Vorinostat (first compound 2.53 µM); 0.697 with AGI-6780 + Vorinostat (first compound 8 µM); 0.769 with AGI-6780 + Crizotinib (first compound 0.08 µM). The relative viability was found to be 0.879 with AGI-6780 + Crizotinib (first compound 0.253 µM); 0.808 with AGI-6780 + Crizotinib (first compound 0.8 µM); 0.791 with AGI-6780 + Crizotinib (first compound 2.53 µM); 0.792 with AGI-6780 + Crizotinib (first compound 8 µM); 0.853 with AGI-6780 + AZD7762 (first compound 0.08 µM); 0.811 in the assay with AGI-6780 + AZD7762 (first compound 0.253 µM). Also, the relative viability worked out at 1.04 in the assay with AGI-6780 + AZD7762 (first compound 0.8 µM); 0.777 with AGI-6780 + AZD7762 (first compound 2.53 µM); 0.952 with AGI-6780 + AZD7762 (first compound 8 µM); 1.06 in the assay with AGI-6780 + Palbociclib (first compound 0.08 µM); 1.09 with AGI-6780 + Palbociclib (first compound 0.253 µM); 1.07 in the assay with AGI-6780 + Palbociclib (first compound 0.8 µM). Besides, the relative viability in the assay with AGI-6780 + Palbociclib (first compound 2.53 µM) stood at 0.93; with AGI-6780 + Palbociclib (first compound 8 µM), 1.01.
